US20030104507A1, “Method for detection of ATP” (priority 2001, published 2003)

Test system: ATPase activity endogenous to L929 cell lysate
Test: Detergent inhibition of ATPase endogenous to L929 cell lysate (ATP remaining by luciferase luminescence, 22° C.)
Type: biochemical
Set-up: key to Relative ATPase Activity, slope det/slope lysate: slope with detergent / slope without; ≥1.0 = 100% activity, 0.5 = 50%
Method: Three separate detergents in each of four detergent classes were tested: anionic [SDS (Sodium dodecyl sulfate), Bioterge (an α olefin sulfate), and sodium deoxycholate], nonionic [TRITON X-100, BigCHAP (N,N-bis(3-D-Gluconamidopropyl)cholamide) and THESIT (polyethylene glycol 400 dodecyl ether, Fluka, #88315)], cationic [BDDABr (Benzyldimethyldodecylammonium bromide), CTAB (Cetyltrimethylammonium bromide), and DTAB (dodecyltrimethylammonium bromide)] and zwitterionic [CHAPS (3[(3-Cholamidopropyl)dimethylammonio]propanesulfonic acid), CHAPSO (3-([3-Cholamidopropyl]dimethylammonio)-2-hydroxy-1-propanesulfonate), and Sulfobetaine 3-10 ([…]-N,N-dimethyl-3-ammonio-1-propanesulfonate)]. Detergents were obtained from Sigma, Fluka and Aldrich.
L929 cells (ATCC CCL-1; 1.5×10^5 cells/ml) in F12/DMEM (Hyclone, SH30023) containing 10% horse serum (Hyclone, SH30074) were frozen and thawed for four cycles to create a cell lysate. Then 50 μl of stock detergent solutions [10%, 5.0%, 1.0%, and 0.5% (w/v)] were separately added to 450 μl cell lysate, creating a final detergent concentration in the cell lysate sample of 1.0%, 0.5%, 0.1%, and 0.05%, respectively (these percentage values are those used in Tables D and E herein below). Control samples contained either lysate only or 1.0 μM ATP in 15 mM HEPES buffer (pH 7.5). All samples were incubated at 22° C. (room temperature) for the duration of the experiment.
At various timepoints, 20 μl from each sample/detergent mixture was added to a 96-well luminometer plate in triplicate, and then 100 μl of a solution (“luciferase-luciferin” or “L/L reagent”) containing 25 mM HEPES buffer (pH 7.5), 40 μg luciferase enzyme LucPpe2m146 (Promega, E140), 100 μM luciferin (Promega), and 10 mM MgSO4 was added to each well. The L/L reagent was stored at 4° C. for the duration of the experiment and then allowed to reach ambient temperature just before assaying. After mixing the contents of the plate, light output was measured with a Dynex MLX microtiter plate luminometer (Chantilly, Va.), 0.5 second reads per well with the first measurement taken five minutes after the detergent solution was combined with the sample. The average relative light units and the timepoint at which it was measured (rlu; Table D) and percent of remaining luciferase activity at the timepoint (Table E) are reported; controls were run with each set of experimental conditions as indicated. The cationic and anionic detergents were assayed on one day with one set of controls. The zwitterionic and nonionic detergents were assayed on a separate day with a separate set of controls. The DTAB at 0.5% was assayed on both days (1 and 2).
The experiment was performed as detailed in Example 1. The average relative light unit values and the percent of ATP remaining values are listed below in Table F and G respectively.
The log of the percent of ATP remaining after original timepoint values from Table E and Table G were plotted on the y axis against time (in minutes) on the x axis. The slope of the line generated by these values in the presence of detergent was divided by the slope of the line generated by the values in the absence of detergent (lysate control) resulting in the Relative ATPase Activity values listed below in Table H.
A relative activity value of 1.0 or greater indicates 100% cellular ATPase activity at the concentration of detergent tested. A relative activity value of 0.5 indicates a two-fold (or 50%) decrease in the level of cellular ATPase activity at the concentration of detergent tested when compared to the ATPase activity level in the absence of the detergent. A relative activity value of 0.2 indicates a five-fold (or 80%) decrease in the level of cellular ATPase activity at the concentration of detergent tested when compared to the ATPase activity level in the absence of the detergent.

With `C[C@H](CCC(=O)NCCC[N+](C)(C)CC(O)CS(=O)(=O)[O-])[C@H]1CC[C@H]2[C@@H]3[C@H](O)C[C@@H]4C[C@H](O)CC[C@]4(C)[C@H]3C[C@H](O)[C@]12C` (stereo partly drawn) [CHAPSO, 3-([3-Cholamidopropyl]dimethylammonio)-2-hydroxy-1-propanesulfonate] the “Average Relative Light Unit Values” (0.05% detergent, 5 min) was 6396.53 rlu, the “Percent ATP Remaining” value (0.05% detergent, 5 min) was 100% and the “Average Relative Light Unit Values” (0.05% detergent, 75 min) was 2424.54 rlu. The “Percent ATP Remaining” value (0.05% detergent, 75 min) was 37.9%, the “Average Relative Light Unit Values” (0.05% detergent, 169 min) was 1124.83 rlu and the “Percent ATP Remaining” value (0.05% detergent, 169 min) was 17.6%. The “Average Relative Light Unit Values” (0.05% detergent, 222 min) was 480.09 rlu, the “Percent ATP Remaining” value (0.05% detergent, 222 min) was 7.5% and the “Average Relative Light Unit Values” (0.05% detergent, 260 min) was 238.80 rlu. The “Percent ATP Remaining” value (0.05% detergent, 260 min) was 3.7%, the “Relative ATPase Activity, slope det/slope lysate” value (0.05 percent detergent) was 1.080 and the “Slope (log percent ATP remaining vs time in minutes)” value (0.05 percent detergent) was −0.0057. The “Average Relative Light Unit Values” (0.1% detergent, 5 min) was 6549.85 rlu, the “Percent ATP Remaining” value (0.1% detergent, 5 min) was 100% and the “Average Relative Light Unit Values” (0.1% detergent, 75 min) was 2584.56 rlu. The “Percent ATP Remaining” value (0.1% detergent, 75 min) was 39.5%, the “Average Relative Light Unit Values” (0.1% detergent, 169 min) was 1210.14 rlu and the “Percent ATP Remaining” value (0.1% detergent, 169 min) was 18.5%. The “Average Relative Light Unit Values” (0.1% detergent, 222 min) was 558.69 rlu, the “Percent ATP Remaining” value (0.1% detergent, 222 min) was 8.5% and the “Average Relative Light Unit Values” (0.1% detergent, 260 min) was 280.84 rlu. The “Percent ATP Remaining” value (0.1% detergent, 260 min) was 4.3%, the “Relative ATPase Activity, slope det/slope lysate” value (0.10 percent detergent) was 1.030 and the “Slope (log percent ATP remaining vs time in minutes)” value (0.10 percent detergent) was −0.0054. The “Average Relative Light Unit Values” (0.5% detergent, 5 min) was 7422.26 rlu, the “Percent ATP Remaining” value (0.5% detergent, 5 min) was 100% and the “Average Relative Light Unit Values” (0.5% detergent, 75 min) was 4089.32 rlu. The “Percent ATP Remaining” value (0.5% detergent, 75 min) was 55.1%, the “Average Relative Light Unit Values” (0.5% detergent, 169 min) was 2581.01 rlu and the “Percent ATP Remaining” value (0.5% detergent, 169 min) was 34.8%. The “Average Relative Light Unit Values” (0.5% detergent, 222 min) was 1460.54 rlu, the “Percent ATP Remaining” value (0.5% detergent, 222 min) was 19.7% and the “Average Relative Light Unit Values” (0.5% detergent, 260 min) was 923.81 rlu. For the same molecule, the “Percent ATP Remaining” value (0.5% detergent, 260 min) was 12.4%, the “Relative ATPase Activity, slope det/slope lysate” value (0.50 percent detergent) was 0.685 and the “Slope (log percent ATP remaining vs time in minutes)” value (0.50 percent detergent) was −0.0036. For the same molecule, the “Average Relative Light Unit Values” (1.0% detergent, 5 min) was 7160.63 rlu, the “Percent ATP Remaining” value (1.0% detergent, 5 min) was 100% and the “Average Relative Light Unit Values” (1.0% detergent, 75 min) was 3803.84 rlu. For the same molecule, the “Percent ATP Remaining” value (1.0% detergent, 75 min) was 53.1%, the “Average Relative Light Unit Values” (1.0% detergent, 169 min) was 2376.31 rlu and the “Percent ATP Remaining” value (1.0% detergent, 169 min) was 33.2%. The “Average Relative Light Unit Values” (1.0% detergent, 222 min) was 1332.97 rlu, the “Percent ATP Remaining” value (1.0% detergent, 222 min) was 18.6% and the “Average Relative Light Unit Values” (1.0% detergent, 260 min) was 840.57 rlu. The “Percent ATP Remaining” value (1.0% detergent, 260 min) was 11.7%, the “Relative ATPase Activity, slope det/slope lysate” value (1.00 percent detergent) was 0.703 and the “Slope (log percent ATP remaining vs time in minutes)” value (1.00 percent detergent) was −0.0037.
